Consider 7 compounds from patent US12440525B2 (priority 2017, dated 2025).

Structures can show the parent of a compound that is named as a salt. Where two headings read alike, the source gives them in different places.

Assay [1] has as its system VSVΔ51. Type of assay: cell-based, Vesicular stomatitis virus.
Assay [2] concerns STAT1. The format is cell-based, human.
The test system of assay [3] is VSVΔ51. Type of assay: cell-based, Vesicular stomatitis virus. This is another data set of the same source.
Assay [4] has as its system replication incompetent lentivirus. Type of assay: cell-based.
In another assay the test system is CT26WT cells. Type of assay: cell-based, murine.
The subject of assay [5] is VSVΔ51. The format is cell-based, Vesicular stomatitis virus. The source holds these as a separate data set.
Another assay relates to CT26WT tumors. Particulars: mouse, in vivo.
A further assay deals with E1A-deleted Ad5. The format is cell-based, adenovirus serotype 5.
Assay [6] relates to VSVΔ51. The format is cell-based, Vesicular stomatitis virus. The source holds these as a separate data set.
A further assay concerns IFITM1. Type of assay: cell-based, human.
For assay [7], the system named is VSVΔ51. The format is cell-based, Vesicular stomatitis virus. The source holds these as a separate data set.
For assay [8], the system named is VSVΔ51. The format is cell-based, Vesicular stomatitis virus. The source holds these as a separate data set.
Another assay concerns B16F10 tumors. The settings on record: mouse, in vivo.
The test system of a further assay is wild-type VSV (wtVSV). Type of assay: cell-based, Vesicular stomatitis virus.
The subject of assay [9] is VSVΔ51. The format is cell-based, Vesicular stomatitis virus. The source holds these as a separate data set.
Assay [10] has as its system STAT1. The format is cell-based, human. This is another data set of the same source.
For assay [11], the system named is VSVΔ51. The format is cell-based, Vesicular stomatitis virus. The source holds these as a separate data set.
The subject of the next assay is HSV-1 mutant N212. The format is cell-based, herpes simplex virus.
The test system of the next assay is wtVSV. Type of assay: cell-based, Vesicular stomatitis virus.
The test system of another assay is Sindbis virus. The format is cell-based.
A further assay relates to 786-0 cells. Type of assay: cell-based, human.
For a further assay, the system named is NF-κB subunit p65. Type of assay: cell-based, human.
In another assay the test system is STAT2. Type of assay: cell-based, human.
The test system of assay [12] is VSVΔ51. The format is cell-based, Vesicular stomatitis virus. The source holds these as a separate data set.
Assay [13] has as its system VSVΔ51. The format is cell-based, Vesicular stomatitis virus. This is another data set of the same source.
For a further assay, the system named is HT29 tumors. The settings on record: mouse, in vivo.
A further assay deals with VSV-viral proteins. The format is cell-based, Vesicular stomatitis virus.
Another assay has as its system B16F10 cells. Type of assay: cell-based, murine.

Turning to `CCOC(=O)/C=C\C(=O)OCC` [DEM, diethyl maleate], the “VSVΔ51 infection, spread, and oncolysis” value in the assay on VSVΔ51 [1] and with VSVΔ51 [3] was “robustly enhanced” in each case. Moreover, in the assay with STAT1 [2], the “STAT1 phosphorylation in cells conditioned with IFNβ” value is on record as “inhibited STAT1 phosphorylation”.
On to `COC(=O)/C=C/C(=O)O` [MMF, monomethyl fumarate], for which, in assay [4], the “increase in lentivirus yield” value was found to be 2.4 fold.
As to `COC(=O)/C=C/C(=O)OC` [DMF, dimethyl fumarate], in the assay on CT26WT cells, the “cell viability, combined treatment with VSVΔ51” value (“cell viability … with VSVΔ51” below) is recorded as “synergistic decrease in cell viability”. The “average plaque diameter of VSVΔ51” value with VSVΔ51 [5] is “substantially increased”. Besides, in the assay on CT26WT tumors, the “challenge of cured mice with a foreign tumor” value is listed as “grew 4T1 tumors at a similar rate as the naive mice”; the “mice with complete remission, combination therapy” value is on record as “approximately 20%”; the “re-challenge of cured mice with the same cancer cells” value is “immune to re-challenge”; the “survival, combination therapy compared with either monotherapy” value (“survival … compared with either monotherapy” below) is given as “significantly prolonged survival”. In the assay with CT26WT tumors, the “tumor progression, combination therapy DMF + VSVΔ51” value was “considerable delay in tumor progression” and the “virus-associated luciferase gene expression in tumors” value is on record as “enhanced virus-associated luciferase gene expression”. Besides, the “STAT1 phosphorylation in cells conditioned with IFNβ” value with STAT1 [2] is reported as “inhibited STAT1 phosphorylation”. Also, the “increase of luciferase transgene expression” value with E1A-deleted Ad5 was “up to 20 fold”. Also, the “VSVΔ51 infection in patient-derived cancer cell lines” value with VSVΔ51 [6] was “increased VSVΔ51 infection”. For the same compound, the “expression levels of the antiviral protein IFITM1” value in the assay on IFITM1 is recorded as “potently repressed”. Besides, in the assay with VSVΔ51 [7], the “protective (suppressive) effect of VSVΔ51ΔG-infected cell supernatant on subsequent infection” value is reported as “completely overcome this suppressive effect”. Further, the “increase of VSVΔ51 infection ex vivo in primary human tumor samples” value with VSVΔ51 [8] is given as above 10 fold. Moreover, in the assay on B16F10 tumors, the “mice with complete remission, combination therapy” value is recorded as “approximately 20%”; the “survival … compared with either monotherapy” value was “significantly prolonged survival”; the “tumor progression, combination therapy DMF + VSVΔ51” value was “considerable delay in tumor progression”. The “infection of 786-0 cells by wild-type VSV” value in the assay on wild-type VSV (wtVSV) is listed as “no impact on infection”. Besides, the “virus growth in human normal tissues” value in the assay with VSVΔ51 [9] is recorded as “did not improve virus growth”. Also, the “activation (phosphorylation) of STAT1” value in the assay with STAT1 [10] is “decreased activation (phosphorylation)”. In addition, the “virus growth in normal tissue cores” value in the assay on VSVΔ51 [11] is given as “did not increase virus growth”. Further, the “viral output of oncolytic herpes virus” value in the assay with HSV-1 mutant N212 is listed as “improved viral output”. Also, the “protective (suppressive) effect of VSVΔ51ΔG-infected cell supernatant on subsequent infection” value in the assay on wtVSV is reported as “completely overcome this suppressive effect”. The “viral output of Sindbis virus” value with Sindbis virus is recorded as “improved viral output”. In the assay on VSVΔ51 [3], the “Virus-encoded GFP expression” value is “greatly enhanced”, the “increase of VSVΔ51 virus growth” value is reported as “more than 100 fold”, the “infection of VSVΔ51” value was “enhanced infection” and the “pre-treatment time prior to infection at which the enhancing effect was observed” value is recorded as “up to 24 hours”. Besides, in the assay on VSVΔ51 [3], the “time post-infection of treatment at which the enhancing effect was observed” value is on record as “up to 8 hours” and the “viral output of VSVΔ51, growth curve at low MOI” value is “enhanced the viral output”. The “cell viability … with VSVΔ51” value in the assay with 786-0 cells is “synergistic decrease in cell viability”. Also, in the assay on NF-κB subunit p65, the “phosphorylation and translocation of NF-κB subunit p65 upon TNFα stimulation” value is “inhibits phosphorylation and translocation”; the “phosphorylation and translocation of NF-κB subunit p65 upon infection” value is “inhibits phosphorylation and translocation”. Moreover, the “activation (phosphorylation) of STAT2” value in the assay with STAT2 is given as “decreased activation (phosphorylation)”. For the same compound, the “VSVΔ51 infection in panel of cancer cell lines” value in the assay on VSVΔ51 [12] is “robustly enhanced infection”. In the assay on VSVΔ51 [13], the “antiviral effects of Type I IFN pretreatment on VSVΔ51 infection” value is reported as “antagonized the antiviral effects”. Moreover, in the assay on HT29 tumors, the “survival … compared with either monotherapy” value is “significantly prolonged survival”; the “tumor progression, combination therapy DMF + VSVΔ51” value is on record as “considerable delay in tumor progression”; the “virus-associated luciferase gene expression in tumors” value was “enhanced virus-associated luciferase gene expression”. In the assay on VSV-viral proteins, the VSV-viral proteins result is “increased”. The “cell viability … with VSVΔ51” value in the assay with B16F10 cells is “synergistic decrease in cell viability”.
On to `O=C(O)/C=C/C(=O)O` [FA, fumaric acid], for which the “infection of VSVΔ51 / viral growth” value with VSVΔ51 [3] was “no impact on viral growth”.
As for `COC(=O)/C=C\C(=O)OC` [DMM, dimethyl maleate], the “VSVΔ51 infection, spread, and oncolysis” value with VSVΔ51 [1] and in the assay on VSVΔ51 [3] was “robustly enhanced” each time.
Regarding `COC(=O)CCC(=O)OC` [DMS, dimethyl succinate], the “viral output of VSVΔ51” value in the assay with VSVΔ51 [3] was “no impact on viral output”.
Take `CCOC(=O)/C=C/C(=O)OCC` [DEF, diethyl fumarate]: the “VSVΔ51 infection, spread, and oncolysis” value in the assay with VSVΔ51 [1] and with VSVΔ51 [3] was “robustly enhanced” each time.
